Columns and labels:
serum lipoproteins = assay: Effect on serum lipoproteins of normolipemic male rats in a subchronic test; assay type: in vivo, male Wistar rats, HOE: WISKf (SPF 71) strain; details: for % change compared with control, protein LDL / % change compared with control, total cholesterol LDL / % change compared with control, total cholesterol VLDL / % change compared with control, triglycerides VLDL: oral, 7 days
Procedure: 4.1 Effect on serum lipoproteins of normolipemic male rats in a subchronic test
Groups of in each case 10 male rats of the HOE: WISKf (SPF 71) strain with an initial weight above 180 g received once a day (in the morning) the test product or the comparison product in 1% aqueous ®Tylose MH 300 solution by stomach tube (0.5 ml/100 g of body weight); the control group in each case received only the vehicle. The last (7th) administration took place 24 hours before removal of blood and sacrifice. There was free access to food and water during the test. The food was withdrawn 24 hours before the removal of blood.
The serum from all 10 rats in a group was pooled for the analysis of the serum lipoproteins. The serum lipoproteins were separated with a preparative ultracentrifuge (KONTRON TGA 65, Rotor BECKMAN 50.4 Ti).
The following conditions specified by Koga, S., Horwitz, D. L., and Scanu, A. M., Journal of Lipid Research 10, 577 (1969) and Havel, R. J., Eder, H. A., and Bragdon, H. H., J. Clin. Invest. 34, 1345 (1955) were used to separate VLDL, LDL and HDL:
Test kits from BOEHRINGER/Mannheim were used for the enzymatic determination of cholesterol and triglycerides in the separated lipoprotein fractions (compare Siedel, J., Schlumberger, H., Klose, S., Ziegenhorn, J. and Wahlefeld, A. W., J. Clin. Chem. Clin. Biochem. 19, 838 (1981) and Wahlefeld, A. W., in: H. O. Bergmeier: Methoden der enzymatischen Analyse (Methods of Enzymatic Analysis), 2nd edition, Volume II, Verlag Chemie 1974, page 1878). The proteins were determined by the method of Lowry (Lowry, O. H., Roseborough, N. J., Farr, A. L. and R. J. Randell, J. Biol. Chem. 193, 265 (1951)).
Clofibrate was used as comparison product.

physchem = details: water
[1] = test system: tumor cells (L 1210, A 549, HT 29); assay: Cell proliferation inhibition (MTT assay), overall statement; assay type: cell-based, mouse and human
Procedure: The reduced inhibitory effect on cell proliferation was tested on exponentially growing animal (mouse leukemia cells, L 1210) and human (bronchial carcinoma cells, A 549; colon carcinoma cells, HT 29) tumor cells. This entailed the tumor cells being incubated in RPMI standard medium with various concentrations of the test substances for 72 hours. Cell incubations only in fresh medium served as control. Incubations were set up in quadruplet. […] After incubation for a further 7 to 24 hours, the cell supernatant was carefully removed and the formazan dye in the cells was solubilized by adding DMSO and measured quantitatively by photometry at 492 nm. The ratio of the extinction of the substance incubations to the control incubation was quantified. The coefficient of variation in each incubation series was less than 15%. The following Table 6 indicates the IC50 values (IC50 [μg/ml] is the concentration of the test substance per ml which is necessary for 50% inhibition) from these investigations.

[2] = test system: carbohydrate-induced hypertriglyceridemia; assay: Inhibition of carbohydrate-induced hypertriglyceridemia; assay type: in vivo, male Sprague-Dawley rats; details: oral, 4 days; for Triglycerides in serum (x): mean x
Procedure: Groups of in each case 10 male Sprague-Dawley rats (supplied by the breeder Mollegard with a weight of 250-280 g) received on each of 4 consecutive days one administration of the compound dissolved in PEG 400 by gavage. In addition, after the 3rd administration and 8 and 24 hours later they received 2.5 g of fructose/kg, likewise by gavage. Moreover, after the 3rd administration of product, 50% strength fructose solution was offered to them as drinking water ad libitum, and the food was withdrawn. Retroorbital removal of blood, from which the serum was obtained for the triglyceride determination and VLDL preparation in the ultracentrifuge (flotation at d=1.006), took place 3 hours after the last product/fructose administration. The food received by the animals from 1 week before the 1st administration and up to the 3rd administration was a diet with 40% casein in the feed meal.
The animals develop, as a result of this treatment, a hypertriglyceridemia which approximately corresponds to Fredrickson phenotype IV in humans. The serum triglycerides of the normal animals increased from 0.54 to 1.1 mmol/l, and the VLDL triglycerides from 0.67 to 1.81.

hypercholesterolemia = assay: Effect on experimental hypercholesterolemia in male rats; assay type: in vivo, male Wistar rats, HOE: WISKf (SPF 71) strain; details: oral, 7 days; for Total cholesterol (x): mean x
Procedure: Groups of in each case 10 male rats of the HOE: WISKf (SPF 71) strain with a weight of about 200 g received each day in the morning a cocktail which contained the substances required to generate a combined dietetic/hormonal hypercholesterolemia, and in each case the product to be tested for the inhibition of hypercholesterolemia, in appropriate dosage. The cocktail was composed of a mixture of 100 g of cholesterol, 30 g of propylthiouracil and 100 g of cholic acid in 1 l of peanut oil. 1 ml of this/100 g of body weight was administered by gavage. The products to be tested were suspended in this cocktail in a concentration such that it contained the daily dose indicated in Table 4 on administration of the amount mentioned above. The other procedure for the treatment and the analysis of the individual parameters were carried out as indicated under 4.1.
Clofibrate was used as comparison product. The results are compiled in Table 4, wherein a) indicates the absolute values and b) indicates the percentage changes.

[3] = Side effects like those observed with the statins; details: general statement

CN(C(=O)c1cnc(N2CC(C)(C)NC2=O)nc1N)c1cccc(C(F)(F)F)c1 [Compound I, 4-amino-2-(4,4-dimethylimidazolidin-2-on-1-yl)pyrimidine-5-carboxylic acid N-methyl-N-(3-trifluoromethylphenyl)amide]
% change compared with control, protein LDL (serum lipoproteins; 1 mg/kg/day): -15% | % change compared with control, total cholesterol LDL (serum lipoproteins; 1 mg/kg/day): -17% | % change compared with control, total cholesterol VLDL (serum lipoproteins; 1 mg/kg/day): +4% | % change compared with control, triglycerides VLDL (serum lipoproteins; 1 mg/kg/day): +8% | % change compared with control, protein LDL (serum lipoproteins; 3 mg/kg/day): -25% | % change compared with control, total cholesterol LDL (serum lipoproteins; 3 mg/kg/day): -32% | % change compared with control, total cholesterol VLDL (serum lipoproteins; 3 mg/kg/day): -24% | % change compared with control, triglycerides VLDL (serum lipoproteins; 3 mg/kg/day): -25% | % change compared with control, protein LDL (serum lipoproteins; 10 mg/kg/day): -41% | % change compared with control, total cholesterol LDL (serum lipoproteins; 10 mg/kg/day): -49% | % change compared with control, total cholesterol VLDL (serum lipoproteins; 10 mg/kg/day): -52% | % change compared with control, triglycerides VLDL (serum lipoproteins; 10 mg/kg/day): -62% | % change compared with control, protein LDL (serum lipoproteins; 30 mg/kg/day): -52% | % change compared with control, total cholesterol LDL (serum lipoproteins; 30 mg/kg/day): -64% | % change compared with control, total cholesterol VLDL (serum lipoproteins; 30 mg/kg/day): -59% | % change compared with control, triglycerides VLDL (serum lipoproteins; 30 mg/kg/day): -79% | HDL levels (in words) (serum lipoproteins; general statement): unaffected | solubility (physchem): 800 µg/mL | solubility (physchem; Solubility in water: molarity, Table 2, free base, 24.8 °C): 2000 µM | Proliferation inhibition compared with imanixil (HOE 402) / its hydrochloride (in words) [1]: distinctly reduced proliferation inhibition | Triglycerides in serum, % change from fructose control ([2]; 1 mg/kg/day): -36% | Triglycerides in the VDVL fraction, % change from fructose control ([2]; 1 mg/kg/day): -45% | Triglycerides in the VDVL fraction, pool n = 10 ([2]; 1 mg/kg/day): 1.00 mmol/L | Triglycerides in serum (x) ([2]; 1 mg/kg/day): 0.71 mmol/L | Triglycerides in serum, % change from fructose control ([2]; 3 mg/kg/day): -51% | Triglycerides in the VDVL fraction, % change from fructose control ([2]; 3 mg/kg/day): -62% | Triglycerides in the VDVL fraction, pool n = 10 ([2]; 3 mg/kg/day): 0.69 mmol/L | Triglycerides in serum (x) ([2]; 3 mg/kg/day): 0.54 mmol/L | Triglycerides in serum, % change from fructose control ([2]; 10 mg/kg/day): -68% | Triglycerides in the VDVL fraction, % change from fructose control ([2]; 10 mg/kg/day): -80% | Triglycerides in the VDVL fraction, pool n = 10 ([2]; 10 mg/kg/day): 0.37 mmol/L | Triglycerides in serum (x) ([2]; 10 mg/kg/day): 0.35 mmol/L | Triglycerides in serum, % change from fructose control ([2]; 30 mg/kg/day): -74% | Triglycerides in the VDVL fraction, % change from fructose control ([2]; 30 mg/kg/day): -90% | Triglycerides in the VDVL fraction, pool n = 10 ([2]; 30 mg/kg/day): 0.19 mmol/L | Triglycerides in serum (x) ([2]; 30 mg/kg/day): 0.29 mmol/L | % change compared with control, protein "HDL" d > 1.04 (hypercholesterolemia; 10 mg/kg/day): -7% | % change compared with control, protein LDL (hypercholesterolemia; 10 mg/kg/day): -16% | % change compared with control, protein VLDL (hypercholesterolemia; 10 mg/kg/day): -8% | % change compared with control, total cholesterol "HDL" d > 1.04 (hypercholesterolemia; 10 mg/kg/day): -14% | % change compared with control, total cholesterol LDL (hypercholesterolemia; 10 mg/kg/day): -13% | % change compared with control, total cholesterol VLDL (hypercholesterolemia; 10 mg/kg/day): -34% | % change compared with control, triglycerides VLDL (hypercholesterolemia; 10 mg/kg/day): -54% | Lipoprotein fraction protein "HDL" (hypercholesterolemia; 10 mg/kg/day): 5004 | Lipoprotein fraction protein LDL (hypercholesterolemia; 10 mg/kg/day): 1040 | Lipoprotein fraction protein VLDL (hypercholesterolemia; 10 mg/kg/day): 1981 | Lipoprotein fraction total cholesterol "HDL" (hypercholesterolemia; 10 mg/kg/day): 508 | Lipoprotein fraction total cholesterol LDL (hypercholesterolemia; 10 mg/kg/day): 4099 | Lipoprotein fraction total cholesterol VLDL (hypercholesterolemia; 10 mg/kg/day): 3088 | Lipoprotein fraction triglycerides VLDL (hypercholesterolemia; 10 mg/kg/day): 677 | Serum % change compared with control at the end of treatment, total cholesterol (hypercholesterolemia; 10 mg/kg/day): -24% | Serum % change compared with control at the end of treatment, triglycerides (hypercholesterolemia; 10 mg/kg/day): -16% | Triglycerides, pool (hypercholesterolemia; 10 mg/kg/day): 2.45 mmol/L | Total cholesterol (x) (hypercholesterolemia; 10 mg/kg/day): 556 mg/dL | % change compared with control, protein "HDL" d > 1.04 (hypercholesterolemia; 30 mg/kg/day): -24% | % change compared with control, protein LDL (hypercholesterolemia; 30 mg/kg/day): -68% | % change compared with control, protein VLDL (hypercholesterolemia; 30 mg/kg/day): -49% | % change compared with control, total cholesterol "HDL" d > 1.04 (hypercholesterolemia; 30 mg/kg/day): +79% | % change compared with control, total cholesterol LDL (hypercholesterolemia; 30 mg/kg/day): -92% | % change compared with control, total cholesterol VLDL (hypercholesterolemia; 30 mg/kg/day): -97% | % change compared with control, triglycerides VLDL (hypercholesterolemia; 30 mg/kg/day): -71% | Lipoprotein fraction protein "HDL" (hypercholesterolemia; 30 mg/kg/day): 4090 | Lipoprotein fraction protein LDL (hypercholesterolemia; 30 mg/kg/day): 391 | Lipoprotein fraction protein VLDL (hypercholesterolemia; 30 mg/kg/day): 1105 | Lipoprotein fraction total cholesterol "HDL" (hypercholesterolemia; 30 mg/kg/day): 1056 | Lipoprotein fraction total cholesterol LDL (hypercholesterolemia; 30 mg/kg/day): 369 | Lipoprotein fraction total cholesterol VLDL (hypercholesterolemia; 30 mg/kg/day): 126 | Lipoprotein fraction triglycerides VLDL (hypercholesterolemia; 30 mg/kg/day): 425 | Serum % change compared with control at the end of treatment, total cholesterol (hypercholesterolemia; 30 mg/kg/day): -81% | Serum % change compared with control at the end of treatment, triglycerides (hypercholesterolemia; 30 mg/kg/day): -62% | Triglycerides, pool (hypercholesterolemia; 30 mg/kg/day): 1.10 mmol/L | Total cholesterol (x) (hypercholesterolemia; 30 mg/kg/day): 137 mg/dL | Solubility in water (in words): exceptionally slightly soluble in water | 1 part by mass dissolves in . . . parts of H2 O (Table 2, Temp. [°C]: hydrochloride 25.0, nitrate 23.5, p-toluenesulfonate 23.2, hydrogen (R,R)-tartrate 24.6, free base 24.8): 1220 parts of H2 O | Side effects of the statin type observed to date [3]: Nor have side effects of this type been observed to date

Source: US5795899A, “Soluble salts of 4-amino-2-(4,4-dimethylimidazolidin-2-on-1-yl) pyrimidine-5-carboxylic acid N-methyl-N-(3-trifluoromethylphenyl)-amide, a process for the preparation thereof, the use thereof as pharmaceuticals and starting materials” (Hoechst Aktiengesellschaft, priority 1992, dated 1998)
